Experimental data taken from patent US10988477B2 (Merck Patent GmbH, priority 2018, dated 2021).
Where two headings read alike, the source gives them in different places.

Key:
[1] = target: intracellular GCN2 (phosphorylation of the GCN2 substrate eIF2α) (Homo sapiens, UniProt Q9P2K8); test: GCN2 cellular inhibition assay (AlphaScreen SureFire P-eIF2α Ser51, borrelidin-treated U2OS cells); type: cell-based
In short: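 U2OS, overnight attach; cpd 4-fold serial dil. from 40 μM final; borrelidin 10 μM, 1 h 37 °C/5% CO2; lyse; AlphaScreen P-eIF2α Ser51 (acceptor 2 h, donor overnight, RT, dark); % inhib. vs borrelidin-only.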

GCN2 kinase = GCN2 kinase (Homo sapiens, UniProt Q9P2K8); test: GCN2 enzyme inhibition assay (Transcreener ADP2 fluorescence polarization); type: biochemical; settings: 280 μM ATP
Chain of GCN2 kinase (Q9P2K8 whole entry): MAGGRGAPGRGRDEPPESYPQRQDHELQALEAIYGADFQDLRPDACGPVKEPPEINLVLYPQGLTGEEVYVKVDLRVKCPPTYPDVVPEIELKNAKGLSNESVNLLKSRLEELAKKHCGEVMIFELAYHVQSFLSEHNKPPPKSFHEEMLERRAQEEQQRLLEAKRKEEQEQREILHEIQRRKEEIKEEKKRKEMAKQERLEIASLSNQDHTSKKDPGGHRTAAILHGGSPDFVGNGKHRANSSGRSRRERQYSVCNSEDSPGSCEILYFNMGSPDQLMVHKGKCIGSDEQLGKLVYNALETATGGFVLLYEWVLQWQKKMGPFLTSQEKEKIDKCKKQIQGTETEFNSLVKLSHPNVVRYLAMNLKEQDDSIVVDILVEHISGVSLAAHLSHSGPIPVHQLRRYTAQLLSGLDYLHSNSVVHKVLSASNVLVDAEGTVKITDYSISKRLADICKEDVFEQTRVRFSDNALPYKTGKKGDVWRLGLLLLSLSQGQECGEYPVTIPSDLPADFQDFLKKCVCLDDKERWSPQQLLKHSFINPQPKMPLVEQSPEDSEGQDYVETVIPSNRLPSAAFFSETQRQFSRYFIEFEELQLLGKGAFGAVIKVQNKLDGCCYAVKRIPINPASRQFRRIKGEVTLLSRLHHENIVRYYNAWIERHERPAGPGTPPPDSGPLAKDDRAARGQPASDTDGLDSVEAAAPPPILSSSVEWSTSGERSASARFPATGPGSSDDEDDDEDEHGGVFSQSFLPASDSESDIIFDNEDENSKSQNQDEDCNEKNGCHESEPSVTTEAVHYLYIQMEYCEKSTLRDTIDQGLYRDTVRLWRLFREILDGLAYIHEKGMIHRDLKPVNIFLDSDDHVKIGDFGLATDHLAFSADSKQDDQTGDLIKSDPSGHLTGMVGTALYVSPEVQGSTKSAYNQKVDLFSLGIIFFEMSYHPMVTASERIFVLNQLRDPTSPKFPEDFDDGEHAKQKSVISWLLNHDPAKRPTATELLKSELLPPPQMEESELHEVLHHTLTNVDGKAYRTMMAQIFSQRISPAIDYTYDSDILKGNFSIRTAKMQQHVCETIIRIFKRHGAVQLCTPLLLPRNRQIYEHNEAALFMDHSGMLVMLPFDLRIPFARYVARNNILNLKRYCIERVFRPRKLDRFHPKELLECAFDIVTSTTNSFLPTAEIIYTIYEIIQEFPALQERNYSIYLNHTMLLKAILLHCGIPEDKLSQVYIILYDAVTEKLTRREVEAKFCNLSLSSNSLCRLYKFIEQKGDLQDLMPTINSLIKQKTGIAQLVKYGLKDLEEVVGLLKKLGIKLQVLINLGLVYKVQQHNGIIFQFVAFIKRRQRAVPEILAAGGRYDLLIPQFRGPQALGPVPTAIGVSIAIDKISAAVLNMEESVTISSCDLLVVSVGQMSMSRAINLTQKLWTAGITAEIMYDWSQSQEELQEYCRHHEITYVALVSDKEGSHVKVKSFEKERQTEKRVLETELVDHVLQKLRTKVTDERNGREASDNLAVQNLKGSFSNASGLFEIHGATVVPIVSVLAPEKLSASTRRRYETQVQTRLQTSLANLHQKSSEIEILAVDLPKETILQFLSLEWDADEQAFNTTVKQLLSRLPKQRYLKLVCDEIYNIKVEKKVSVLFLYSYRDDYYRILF
In short: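 4 nM GCN2 + 200 μM (RS)7 + compound (0–8 μM), 10 min preinc.; start with ATP (280 μM final); 1 h, 25 °C; pH 7.5 Tris/NaCl/MgCl2/DTT; ADP FP readout; IC50, Ki(app) via tight-binding fit.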

[2] = compounds of Formula II, biomarker assay, phosphorylated eIF2α Ser51 in borrelidin-treated U2OS cells
[3] = compounds of Formula II, 4 nM GCN2 kinase
[4] = compounds of Formula IV, biomarker assay, phosphorylated eIF2α Ser51 in borrelidin-treated U2OS cells
[5] = Enzyme activity for compounds of Formula IV, Ki(app), 25° C.

Chain of intracellular GCN2 (phosphorylation of the GCN2 substrate eIF2α) (Q9P2K8 whole entry): as above

IC50 [1, 2] [nM]	Ki (GCN2 kinase; [3]) [nM]	IC50 [1, 4] [nM]	Ki (GCN2 kinase; [5]) [nM]	Compound	also measured
> 5000	10 to 1000			CS(=O)(=O)N1CCC2(CC1)CN(c1cc(-c3cnc4ccc(C(F)F)nn34)ncn1)CCO2 [II-287, 4-(6-(6-(Difluoromethyl)imidazo[1,2-b]pyridazin-3-yl)pyrimidin-4-yl)-9-(methylsulfonyl)-1-oxa-4,9-diazaspiro[5.5]undecane]	
< 500	< 10			CC1C(CNS(C)(=O)=O)CCCN1c1cc(-c2cnc3ccc(C(F)F)nn23)ncn1 (single isomer, unassigned) [II-266, N-((1-(6-(6-(Difluoromethyl)imidazo[1,2-b]pyridazin-3-yl)pyrimidin-4-yl)-2-methylpiperidin-3-yl)methyl)methanesulfonamide]	
< 500	< 10			CNS(=O)(=O)NCC1CN(c2cc(-c3cnc4ccc(C(F)F)nn34)ncn2)CCO1 (stereo not drawn) [II-386, 1-((4-(6-(6-(Difluoromethyl)imidazo[1,2-b]pyridazin-3-yl)pyrimidin-4-yl)morpholin-2-yl)methyl)-3-methylsulfuric diamide]	
		> 5000	100 to 1000	FC(F)(F)c1cn2c(-c3nccc(N4CCC5(CC4)CNC5)n3)cnc2cn1 [IV-692, 3-(4-(2,7-Diazaspiro[3.5]nonan-7-yl)pyrimidin-2-yl)-6-(trifluoromethyl)imidazo[1,2-a]pyrazine]	
> 5000	10 to 1000			CS(=O)(=O)NCC1CN(c2cc(-c3cnc4ccc(C(F)F)nn34)ccn2)CCN1C1COC1 (stereo not drawn) [II-81, N-((4-(4-(6-(Difluoromethyl)imidazo[1,2-b]pyridazin-3-yl)pyridin-2-yl)-1-(oxetan-3-yl)piperazin-2-yl)methyl)methanesulfonamide]	
> 5000	10 to 1000			CS(=O)(=O)N1CCCC(c2cc(-c3cnc4ccc(C(F)F)nn34)ncn2)C1 (stereo not drawn) [II-21, 6-(Difluoromethyl)-3-(6-(1-(methylsulfonyl)piperidin-3-yl)pyrimidin-4-yl)imidazo[1,2-b]pyridazine]	
500 to 5000	10 to 1000			CS(=O)(=O)NCC12CC1CN(c1cc(-c3cnc4ccc(C(F)F)nn34)ncn1)C2 (stereo not drawn) [II-447, N-((3-(6-(6-(Difluoromethyl)imidazo[1,2-b]pyridazin-3-yl)pyrimidin-4-yl)-3-azabicyclo[3.1.0]hexan-1-yl)methyl)methanesulfonamide]	
		> 5000	10 to 100	CC1C(c2cn[nH]c2)CC(P(C)(C)=O)CN1c1ccnc(-c2cnc3cnc(C(F)(F)F)cn23)n1 (stereo not drawn) [IV-693, Dimethyl(6-methyl-5-(1H-pyrazol-4-yl)-1-(2-(6-(trifluoromethyl)imidazo[1,2-a]pyrazin-3-yl)pyrimidin-4-yl)piperidin-3-yl)phosphine oxide]	
< 500	< 10			CS(=O)(=O)NC[C@H]1CCCN(c2cc(-c3cnc4ccc(C(F)F)nn34)ncn2)C1 [II-300, (S)—N-((1-(6-(6-(Difluoromethyl)imidazo[1,2-b]pyridazin-3-yl)pyrimidin-4-yl)piperidin-3-yl)methyl)methanesulfonamide]	
				CS(=N)(=O)CC1CCCN(c2ccnc(-c3cnc4sc(C(F)(F)F)cn34)n2)C1 (racemic) [Compound V-19, Imino(methyl)((1-(2-(2-(trifluoromethyl)imidazo[2,1-b]thiazol-5-yl)pyrimidin-4-yl)piperidin-3-yl)methyl)-λ^6-sulfanone]	IC50 ([1]; compounds of Formula V, U2OS cells, 10 μM borrelidin, 1 h, read-out: GCN2 Biomarker (IC50)): > 5000 nM; Ki (GCN2 kinase; compounds of Formula V, 4 nM GCN2 kinase): 100 to 1000 nM
		500 to 5000	< 10	CC1CN(c2ccnc(-c3cnc4cnc(Br)cn34)n2)C(C)C(c2c[nH]cn2)N1 (single isomer, unassigned) [IV-376, 3-(4-(3-(1H-Imidazol-4-yl)-2,5-dimethylpiperazin-1-yl)pyrimidin-2-yl)-6-bromoimidazo[1,2-a]pyrazine]	
		> 5000	100 to 1000	CS(=O)(=O)NC1CCN(c2ccnc(-c3cnc4cnc(C(F)F)cn34)n2)C1 (stereo not drawn) [IV-70, N-(1-(2-(6-(Difluoromethyl)imidazo[1,2-a]pyrazin-3-yl)pyrimidin-4-yl)pyrrolidin-3-yl)methanesulfonamide]	
500 to 5000	10 to 1000			Clc1ccc2ncc(-c3ccnc(N4CCC5CNCC5C4)c3)n2n1 (stereo not drawn) [II-188]	
500 to 5000	10 to 1000			OC[C@H]1CN(c2cc(-c3cnc4ccc(C(F)F)nn34)ncn2)C[C@@H](C(F)(F)F)O1 [II-298, ((2R,6S)-4-(6-(6-(Difluoromethyl)imidazo[1,2-b]pyridazin-3-yl)pyrimidin-4-yl)-6-(trifluoromethyl)morpholin-2-yl)methanol]	
500 to 5000	10 to 1000			CS(=O)(=O)NCC1COCCN(c2cc(-c3cnc4ccc(C(F)(F)F)nn34)ccn2)C1 (stereo not drawn) [II-232, N-((4-(4-(6-(Trifluoromethyl)imidazo[1,2-b]pyridazin-3-yl)pyridin-2-yl)-1,4-oxazepan-6-yl)methyl)methanesulfonamide]	
		> 5000	100 to 1000	c1cn2c(-c3nccc(N4CCOC(c5cn[nH]c5)C4)n3)cnc2cn1 (stereo not drawn) [IV-39, 4-(2-(Imidazo[1,2-a]pyrazin-3-yl)pyrimidin-4-yl)-2-(1H-pyrazol-4-yl)morpholine]	
500 to 5000	10 to 1000			CS(=O)(=O)NCC1(O)CCCN(c2cc(-c3cnc4ccc(C(F)F)nn34)ncn2)C1 (stereo not drawn) [II-158, N-((1-(6-(6-(Difluoromethyl)imidazo[1,2-b]pyridazin-3-yl)pyrimidin-4-yl)-3-hydroxypiperidin-3-yl)methyl)methanesulfonamide]	
		> 5000	100 to 1000	FC(F)(F)c1cn2c(-c3nccc(N4CCOCC4)n3)cnc2cn1 [IV-426, 4-(2-(6-(Trifluoromethyl)imidazo[1,2-a]pyrazin-3-yl)pyrimidin-4-yl)morpholine]	
		> 5000	100 to 1000	FC(F)c1cn2c(-c3nccc(N4CCCCCC4)n3)cnc2cn1 [IV-105, 3-(4-(Azepan-1-yl)pyrimidin-2-yl)-6-(difluoromethyl)imidazo[1,2-a]pyrazine]	
		> 5000	100 to 1000	CNS(=O)(=O)C1CCN(c2ccnc(-c3cnc4cnc(C(F)F)cn34)n2)C1 (stereo not drawn) [IV-71, 1-(2-(6-(Difluoromethyl)imidazo[1,2-a]pyrazin-3-yl)pyrimidin-4-yl)-N-methylpyrrolidine-3-sulfonamide]	
		< 500	< 10	CC1C(c2cn[nH]c2)OCCN1c1ccnc(-c2cnc3cnc(Cl)cn23)n1 (single isomer, unassigned) [IV-9, 4-(2-(6-Chloroimidazo[1,2-a]pyrazin-3-yl)pyrimidin-4-yl)-3-methyl-2-(1H-pyrazol-4-yl)morpholine]	
500 to 5000				C[C@H]1[C@H](CNS(C)(=O)=O)N(C2CC2)CCN1c1cc(-c2cnc3ccc(C(F)F)nn23)ncn1 [II-769, N-(((2S,3S)-1-cyclopropyl-4-(6-(6-(difluoromethyl)imidazo[1,2-b]pyridazin-3-yl)pyrimidin-4-yl)-3-methylpiperazin-2-yl)methyl)methanesulfonamide]	IC50 (GCN2 kinase; [3]): 10 to 1000 nM
		500 to 5000	10 to 100	Brc1cn2c(-c3nccc(N4CCCC(c5c[nH]cn5)C4)n3)cnc2cn1 (single isomer, unassigned) [IV-362, 3-(4-(3-(1H-Imidazol-4-yl)piperidin-1-yl)pyrimidin-2-yl)-6-bromoimidazo[1,2-a]pyrazine]	
> 5000	10 to 1000			CC(F)(F)c1ccc2ncc(-c3cc(N4CCO[C@H](CNS(C)(=O)=O)C4)ncn3)n2n1 [II-322, (S)—N-((4-(6-(6-(1,1-Difluoroethyl)imidazo[1,2-b]pyridazin-3-yl)pyrimidin-4-yl)morpholin-2-yl)methyl)methanesulfonamide]	
500 to 5000	10 to 1000			CS(=O)(=O)NC[C@H]1CN(c2cc(-c3cnc4ccc(C(F)F)nn34)ncn2)C[C@@H](C(F)(F)F)O1 [II-306, N-(((2R,6S)-4-(6-(6-(Difluoromethyl)imidazo[1,2-b]pyridazin-3-yl)pyrimidin-4-yl)-6-(trifluoromethyl)morpholin-2-yl)methyl)methanesulfonamide]	
500 to 5000	10 to 1000			OCC1CN(c2cc(-c3cnc4ccc(C(F)F)nn34)ncn2)CCO1 (stereo not drawn) [II-521, (4-(6-(6-(Difluoromethyl)imidazo[1,2-b]pyridazin-3-yl)pyrimidin-4-yl)morpholin-2-yl)methanol]	
500 to 5000	10 to 1000			CS(=N)(=O)CC1CCCN(c2cc(-c3cnc4ccc(C(F)F)nn34)ncn2)C1 (stereo not drawn) [II-370, ((1-(6-(6-(Difluoromethyl)imidazo[1,2-b]pyridazin-3-yl)pyrimidin-4-yl)piperidin-3-yl)methyl)(imino)(methyl)-λ^6-sulfanone]	
		> 5000	100 to 1000	COc1cn2c(-c3nccc(N4CCN(C(C)=O)CC4)n3)cnc2cn1 [IV-25, 1-(4-(2-(6-Methoxyimidazo[1,2-a]pyrazin-3-yl)pyrimidin-4-yl)piperazin-1-yl)ethan-1-one]	
> 5000	10 to 1000			O=C(O)[C@@H]1CCCN(c2cc(-c3cnc4ccc(C(F)(F)F)nn34)ncn2)C1 [II-506, (R)-1-(6-(6-(Trifluoromethyl)imidazo[1,2-b]pyridazin-3-yl)pyrimidin-4-yl)piperidine-3-carboxylic acid]	
		< 500	< 10	FC(F)(F)c1cn2c(-c3nccc(N4CCOC(c5cn[nH]c5)C4)n3)cnc2cn1 (stereo not drawn) [IV-3, 2-(1H-Pyrazol-4-yl)-4-(2-(6-(trifluoromethyl)imidazo[1,2-a]pyrazin-3-yl)pyrimidin-4-yl)morpholine]	
